From paper PMC6697623 (2019)

Test system: Corn wild type (RNA 1) (RNA, aptamer) GGCGCGAGGAAGGAGGUCUGAGGAGGUCACUGCGCC
Assay: fluorescence titration, RNA varied
Conditions: 100 mM KCl, 10 mM MgCl2; pH 7.5, 20 °C; 2.5 μM TO

apparent Kd: 1.4 µM
SMILES: CN1C(=Cc2cc[n+](C)c3ccccc23)Sc2ccccc21
